Measured values reported in patent US8455525B2, “Selective androgen receptor modulators” (Radius Health, Inc., priority 2008, dated 2013).

Biological target: T1, androgen receptor (AR) (Rattus norvegicus, UniProt P15207)
T1 construct: purchased Invitrogen, Madison, Wis
T1 sequence (P15207 651-902 limits assumed): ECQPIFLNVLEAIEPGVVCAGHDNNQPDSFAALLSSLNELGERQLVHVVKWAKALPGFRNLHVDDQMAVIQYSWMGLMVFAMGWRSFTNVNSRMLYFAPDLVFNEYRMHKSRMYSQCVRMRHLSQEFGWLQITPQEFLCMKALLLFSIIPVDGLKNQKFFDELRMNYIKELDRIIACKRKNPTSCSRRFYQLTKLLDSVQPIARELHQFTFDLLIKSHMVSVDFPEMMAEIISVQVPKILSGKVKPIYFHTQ
Test: androgen receptor binding assay (fluorescence polarization, Fluormone AL Green competition)
Details: not given
Protocol: The assay was performed as specified by the manufacturer (Invitrogen, Madison, Wis.). Briefly, 1 μl of 10 mM compound was added to 500 μl of AR screening buffer in a 1.5 ml eppendorf tube to make a 2×10^−5M stock. 10-fold serial dilutions of the test compounds were prepared ranging in concentration from 10^−5M to 10^−12M. Each dilution was added in triplicate to a black 384-microtiter plate. The test compounds will be diluted 2-fold in the final reaction. 2×AR-Fluormone™ complex was prepared with 2 nM Flourmone AL Green™ and 30 nM AR. 25 μl of 2× complex was aliquoted to each reaction well, such that the final reaction volume was 50 μl per well. Plate was sealed with a foil cover and incubated in the dark at room temperature for 4 h. Polarization values for each well were measured. The polarization values were plotted against the concentration of the test compound. […] As a control, a competition curve for R1881 (methyltrienolone) was performed for each assay. Curve Fitting was performed using GraphPad Prism® software from GraphPad™ Software Inc. Binding data are reported as a single determination if the experiment was run once only and as the average of experiments if the binding experiment was performed two or more times with that compound.
Where multiple data points have been taken, the value reported is the average of the multiple determinations.

SMILES | IC50
Cc1c(N[C@@H](c2nnc(-c3ccccc3)o2)[C@@H](C)O)ccc(C#N)c1Cl [Example 3, 2-chloro-4-((1R,2R)-2-hydroxy-1-(5-phenyl-1,3,4-oxadiazol-2-yl)propylamino)-3-methylbenzonitrile] | 6 nM
C[C@H](O)[C@@H](Nc1ccc(C#N)c2sccc12)c1nnc(-c2ccccc2)o1 [Example 63, 4-((1R,2S)-2-hydroxy-1-(5-phenyl-1,3,4-oxadiazol-2-yl)propylamino)benzo[b]thiophene-7-carbonitrile] | 1 nM
Cc1c(N[C@@H](c2nnc(-c3ccccc3)o2)[C@H](C)O)ccc(C#N)c1Cl [Example 1, 2-chloro-4-((1R,2S)-2-hydroxy-1-(5-phenyl-1,3,4-oxadiazol-2-yl)propylamino)-3-methylbenzonitrile] | 3 nM
Cc1c(N[C@@H](c2nnc(-c3ccc(S(C)(=O)=O)cc3)o2)[C@H](C)O)ccc(C#N)c1Cl [Example 24, 2-chloro-4-((1R,2S)-2-hydroxy-1-(5-(4-(methylsulfonyl)phenyl)-1,3,4-oxadiazol-2-yl)propylamino)-3-methylbenzonitrile] | 200 nM
C[C@H](O)[C@@H](Nc1ccc(C#N)c(Cl)c1Cl)c1nnc(-c2ccc(Cl)cc2)o1 [Example 34, 2,3-Dichloro-4-((1R,2S)-1-(5-(4-chlorophenyl)-1,3,4-oxadiazol-2-yl)-2-hydroxypropylamino)benzonitrile] | 4 nM
CCCC(=O)Nc1ccc(-c2nnc([C@H](Nc3ccc(C#N)c(Cl)c3C)[C@@H](C)O)o2)cc1 [Example 71, N-(4-(5-((1R,2R)-1-(3-Chloro-4-cyano-2-methylphenylamino)-2-hydroxypropyl)-1,3,4-oxadiazol-2-yl)phenyl)butyramide] | 280 nM
Cc1c(N[C@@H](c2nnc(-c3ccc(F)cc3)o2)[C@@H](C)O)ccc(C#N)c1Cl [Example 19, 2-chloro-4-((1R,2R)-1-(5-(4-fluorophenyl)-1,3,4-oxadiazol-2-yl)-2-hydroxypropylamino)-3-methylbenzonitrile] | 19 nM
Cc1c(N[C@@H](c2nnc(-c3ccc(Cl)cc3)o2)[C@@H](C)O)ccc(C#N)c1Cl [Example 20, 2-Chloro-4-((1R,2R)-1-(5-(4-chlorophenyl)-1,3,4-oxadiazol-2-yl)-2-hydroxypropylamino)-3-methylbenzonitrile] | 15 nM
C[C@H](O)[C@@H](Nc1ccc(C#N)c2sccc12)c1nnc(-c2ccc(F)cc2)o1 [Example 62, 4-((1R,2S)-1-(5-(4-fluorophenyl)-1,3,4-oxadiazol-2-yl)-2-hydroxypropylamino)benzo[b]thiophene-7-carbonitrile] | 15 nM
Cc1c(N[C@@H](c2nnc(-c3ccc(Cl)c(Cl)c3)o2)[C@@H](C)O)ccc(C#N)c1Cl [Example 32, 2-Chloro-4-((1R,2R)-1-(5-(3,4-dichlorophenyl)-1,3,4-oxadiazol-2-yl)-2-hydroxypropylamino)-3-methylbenzonitrile] | 2 nM
CC(=O)Nc1ccc(-c2nnc([C@H](Nc3ccc(C#N)c(Cl)c3C)[C@@H](C)O)o2)cc1 [Example 70, N-(4-(5-((1R,2R)-1-(3-Chloro-4-cyano-2-methylphenylamino)-2-hydroxypropyl)-1,3,4-oxadiazol-2-yl)phenyl)acetamide] | 4 nM
Cc1c(N[C@@H](c2nnc(-c3cccc(O)c3)o2)[C@H](C)O)ccc(C#N)c1Cl [Example 7, 2-chloro-4-((1R,2S)-2-hydroxy-1-(5-(3-hydroxyphenyl)-1,3,4-oxadiazol-2-yl)propylamino)-3-methylbenzonitrile] | 0.4 nM

Same assay, conditions: single determination or average of multiple determinations; read-out: Binding IC50 (AR-Binding Affinity)

SMILES | IC50
C[C@@H](O)[C@@H](Nc1ccc(C#N)c2sccc12)c1nnc(-c2ccc(C#N)cc2)o1 [Example 61, 4-((1R,2R)-1-(5-(4-cyanophenyl)-1,3,4-oxadiazol-2-yl)-2-hydroxypropylamino)benzo[b]thiophene-7-carbonitrile] | 1 nM

Tested on: young, orchidectomized rats
Test: Rat Herschberger assay: organ weights of orchidectomized rats relative to sham
Assay type: in vivo, rat (Sprague Dawley)
Details: 10 mg/kg (po), once daily for 4 days
From the text: The following is a typical procedure of the in vivo evaluation of the selective androgens of this invention. In particular, this assay looks primarily at the ability of the selective androgens of this invention to increase muscle size in an immature, castrated rat. In addition, androgenic effects are looked at primarily by weighing the prostate and seminal vesicles. Selective compounds will show a greater increase in the levator ani relative to the prostate and seminal vesicles when compared to testosterone treated, castrated animals or to intact animals that have not been treated. Immature Sprague Dawley male rats were obtained Charles River Laboratories (Stoneridge, N.Y.). All animals were maintained in a temperature and humidity controlled room with a 12 hr light: 12 hr dark cycle, with ad lib access to food (TD 291615, Teklad, Madison, Wis.) and water. Rats were anesthetized and orchidectomized (GDX) or sham surgery (SHAM) was performed. After a 7-day recovery period, the animals were randomized according to weight and assigned to treatment groups (n=5), SHAM, OVX+ vehicle, OVX+Cpd treated. Testosterone propionate (TP 1 mg/kg in 5% DMSO/95% corn oil) was administered by once daily subcutaneous injections, while the compounds of the invention are dosed in vehicle (typically 20% cyclodextrin or 0.5% carboxymethylcellulose) was administered by once daily oral gavage. The rats were then dosed once daily for 4 days. All animals were euthanized via carbon dioxide inhalation 24 hs after the last dose. The prostate, seminal vesicle and levator ani and bulba cavernous (LABC) tissues were removed, weighed and recorded. Body weights were recorded for each animal at baseline and at sacrifice.
Prostate, seminal vesicle and levator ani bulbus cavernosus (LABC) are all represented as % relative to sham. After sacrifice, organ weights of young, orchidectomized rats treated with compound for 4 days are compared to sham operated animals.

SMILES | LABC (levator ani bulbus cavernosus) weight, % relative to sham | Prostate weight, % relative to sham | Seminal vesicle weight, % relative to sham
Cc1c(N[C@@H](c2nnc(-c3ccccc3)o2)[C@@H](C)O)ccc(C#N)c1Cl [Example 3, 2-chloro-4-((1R,2R)-2-hydroxy-1-(5-phenyl-1,3,4-oxadiazol-2-yl)propylamino)-3-methylbenzonitrile] | 99% | 43% | 37%
Cc1c(N[C@@H](c2nnc(-c3ccccc3)o2)[C@H](C)O)ccc(C#N)c1Cl [Example 1, 2-chloro-4-((1R,2S)-2-hydroxy-1-(5-phenyl-1,3,4-oxadiazol-2-yl)propylamino)-3-methylbenzonitrile] | 85% | 46% | 69%
